Activity calls are given as the source filed them. No rule for the calls is given here.
System: CCRIS mutagenicity, Ames/micronucleus/aberration tests
Experiment: CCRIS mutagenicity studies
[1] = Test System: AMES SALMONELLA TYPHIMURIUM, Strain/Indicator: TA98, Metabolic Activation: NONE, Method: STANDARD PLATE
[2] = Test System: AMES SALMONELLA TYPHIMURIUM, Strain/Indicator: TA100, Metabolic Activation: NONE, Method: STANDARD PLATE
[3] = Test System: AMES SALMONELLA TYPHIMURIUM, Strain/Indicator: TA100, Metabolic Activation: RAT, LIVER, S-9, AROCLOR 1254, Method: STANDARD PLATE

C1CCC(NC2CCCCC2)CC1
mutagenic call (Test System: AMES SALMONELLA TYPHIMURIUM, Strain/Indicator: TA97, Metabolic Activation: HAMSTER, LIVER, S-9, AROCLOR 1254 (10%), Method: PREINCUBATION): inactive; negative
mutagenic call (Test System: AMES SALMONELLA TYPHIMURIUM, Strain/Indicator: TA97, Metabolic Activation: NONE, Method: PREINCUBATION): inactive; negative
mutagenic call (Test System: AMES SALMONELLA TYPHIMURIUM, Strain/Indicator: TA97, Metabolic Activation: RAT, LIVER, S-9, AROCLOR 1254 (10%), Method: PREINCUBATION): inactive; negative
mutagenic call (Test System: AMES SALMONELLA TYPHIMURIUM, Strain/Indicator: TA98, Metabolic Activation: HAMSTER, LIVER, S-9, AROCLOR 1254 (10%), Method: PREINCUBATION): inactive; negative
mutagenic call (Test System: AMES SALMONELLA TYPHIMURIUM, Strain/Indicator: TA98, Metabolic Activation: NONE, Method: PREINCUBATION): inactive; negative
mutagenic call (Test System: AMES SALMONELLA TYPHIMURIUM, Strain/Indicator: TA98, Metabolic Activation: RAT LIVER S-9, PHENOBARBITAL AND BETA-NAPHTHOFLAVONE, Method: PREINCUBATION): inactive; negative
mutagenic call (Test System: AMES SALMONELLA TYPHIMURIUM, Strain/Indicator: TA98, Metabolic Activation: RAT, LIVER, S-9, AROCLOR 1254 (10%), Method: PREINCUBATION): inactive; negative
mutagenic call (Test System: AMES SALMONELLA TYPHIMURIUM, Strain/Indicator: TA100, Metabolic Activation: NONE, Method: PREINCUBATION): inactive; negative
mutagenic call (Test System: AMES SALMONELLA TYPHIMURIUM, Strain/Indicator: TA100, Metabolic Activation: RAT LIVER S-9, PHENOBARBITAL AND BETA-NAPHTHOFLAVONE, Method: PREINCUBATION): inactive; negative
mutagenic call (Test System: AMES SALMONELLA TYPHIMURIUM, Strain/Indicator: TA100, Metabolic Activation: RAT, LIVER, S-9, AROCLOR 1254 (10%), Method: PREINCUBATION): inactive; negative
mutagenic call (Test System: AMES SALMONELLA TYPHIMURIUM, Strain/Indicator: TA1535, Metabolic Activation: RAT LIVER S-9, PHENOBARBITAL AND BETA-NAPHTHOFLAVONE, Method: PREINCUBATION): inactive; negative
mutagenic call (Test System: AMES SALMONELLA TYPHIMURIUM, Strain/Indicator: TA1537, Metabolic Activation: HAMSTER, LIVER, S-9, AROCLOR 1254 (10%), Method: PREINCUBATION): inactive; negative
mutagenic call (Test System: AMES SALMONELLA TYPHIMURIUM, Strain/Indicator: TA1537, Metabolic Activation: NONE, Method: PREINCUBATION): inactive; negative
mutagenic call (Test System: AMES SALMONELLA TYPHIMURIUM, Strain/Indicator: TA1537, Metabolic Activation: RAT LIVER S-9, PHENOBARBITAL AND BETA-NAPHTHOFLAVONE, Method: PREINCUBATION): inactive; negative
mutagenic call (Test System: AMES SALMONELLA TYPHIMURIUM, Strain/Indicator: TA1537, Metabolic Activation: RAT, LIVER, S-9, AROCLOR 1254 (10%), Method: PREINCUBATION): inactive; negative
mutagenic call (Test System: E.COLI, Strain/Indicator: WP2UVRA/PKM101, Metabolic Activation: NONE, Method: PREINCUBATION): inactive; negative
mutagenic call (Test System: E.COLI, Strain/Indicator: WP2UVRA/PKM101, Metabolic Activation: RAT LIVER S-9, PHENOBARBITAL AND BETA-NAPHTHOFLAVONE, Method: PREINCUBATION): inactive; negative

O=C(O)/C=C/Cl
mutagenic call (Test System: AMES SALMONELLA TYPHIMURIUM, Strain/Indicator: TA97, Metabolic Activation: RAT, LIVER, S-9, PCB, Method: STANDARD PLATE): active; positive
mutagenic call (Test System: AMES SALMONELLA TYPHIMURIUM, Strain/Indicator: TA102, Metabolic Activation: RAT, LIVER, S-9, PCB, Method: STANDARD PLATE): active; positive

O=C1c2ccccc2Cc2ccccc21
mutagenic call [1]: active; positive
mutagenic call [2]: inactive; negative
mutagenic call [3]: inactive; negative

COc1ccc2c(cc3c4c(cc5c(c42)OCO5)C(=O)C(=O)N3C)c1OC
mutagenic call (Test System: AMES SALMONELLA TYPHIMURIUM, Strain/Indicator: TA98, Metabolic Activation: RAT, LIVER, S-9, PHENOBARBITAL AND BETA-NAPHTHOFLAVONE, Method: PREINCUBATION): active; positive
mutagenic call (Test System: AMES SALMONELLA TYPHIMURIUM, Strain/Indicator: TA100, Metabolic Activation: RAT, LIVER, S-9, PHENOBARBITAL AND BETA-NAPHTHOFLAVONE, Method: PREINCUBATION): active; positive

CCCCCCCCCCCCOC(=O)CCSCCC(=O)OCCCCCCCCCCCC
mutagenic call [1]: inactive; negative
mutagenic call (Test System: AMES SALMONELLA TYPHIMURIUM, Strain/Indicator: TA98, Metabolic Activation: RAT, LIVER, S-9, AROCLOR 1254, Method: STANDARD PLATE): inactive; negative
mutagenic call [2]: inactive; negative
mutagenic call [3]: inactive; negative
mutagenic call (Test System: AMES SALMONELLA TYPHIMURIUM, Strain/Indicator: TA1535, Metabolic Activation: NONE, Method: STANDARD PLATE): inactive; negative
mutagenic call (Test System: AMES SALMONELLA TYPHIMURIUM, Strain/Indicator: TA1535, Metabolic Activation: RAT, LIVER, S-9, AROCLOR 1254, Method: STANDARD PLATE): inactive; negative
mutagenic call (Test System: AMES SALMONELLA TYPHIMURIUM, Strain/Indicator: TA1537, Metabolic Activation: NONE, Method: STANDARD PLATE): inactive; negative
mutagenic call (Test System: AMES SALMONELLA TYPHIMURIUM, Strain/Indicator: TA1537, Metabolic Activation: RAT, LIVER, S-9, AROCLOR 1254, Method: STANDARD PLATE): inactive; negative
mutagenic call (Test System: AMES SALMONELLA TYPHIMURIUM, Strain/Indicator: TA1538, Metabolic Activation: NONE, Method: STANDARD PLATE): inactive; negative
mutagenic call (Test System: AMES SALMONELLA TYPHIMURIUM, Strain/Indicator: TA1538, Metabolic Activation: RAT, LIVER, S-9, AROCLOR 1254, Method: STANDARD PLATE): inactive; negative
mutagenic call (Test System: E. COLI, Strain/Indicator: WP2, Metabolic Activation: NONE, Method: STANDARD PLATE): inactive; negative
mutagenic call (Test System: E. COLI, Strain/Indicator: WP2, Metabolic Activation: RAT, LIVER, S-9, AROCLOR 1254, Method: STANDARD PLATE): inactive; negative

CC1c2ccccc2-c2ccc(F)cc21 (configuration not stated)
mutagenic call [3]: active; positive

From PubChem BioAssay AID1259407 (Chemical Carcinogenesis Research Information System (CCRIS), 2018)
